Results: patent US7790716B2, “Fab I inhibitors” (Affinium Pharmaceuticals, Inc., priority 1999, dated 2010)

Biological target: T1, FabK (Streptococcus pneumoniae, UniProt Q9FBC5)
T1 sequence (Q9FBC5 1-324): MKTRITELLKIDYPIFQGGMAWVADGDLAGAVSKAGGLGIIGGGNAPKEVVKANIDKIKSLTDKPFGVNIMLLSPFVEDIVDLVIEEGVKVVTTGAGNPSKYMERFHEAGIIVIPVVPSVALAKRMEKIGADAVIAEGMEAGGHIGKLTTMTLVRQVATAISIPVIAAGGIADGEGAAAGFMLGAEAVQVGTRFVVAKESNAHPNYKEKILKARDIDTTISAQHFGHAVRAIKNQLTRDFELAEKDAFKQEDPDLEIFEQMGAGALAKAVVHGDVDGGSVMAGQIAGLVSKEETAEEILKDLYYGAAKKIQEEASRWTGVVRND
Assay: FabK Enzyme Inhibition Assay
Format: biochemical
Protocol: FabK catalyses the reduction of enoyl-ACPs with the concomitant oxidation of NADH. The reduction of crotonoyl-ACP to butyryl-ACP can be monitored by following the change in absorbance at 340 nm as NADH is oxidized.
Assays were carried out in Costar 3696 half-area plates in a final assay volume of 150 uL on a Spectramax platereader. The substrates (NADH and crotonoyl-ACP) were incubated with FabK enzyme in 100 mM N-[2-acetamido]-2 iminodiacetic acid (ADA), pH 6.5, 100 mM NH4Cl, 4% glycerol at 30° C. and the reaction was monitored at 340 nm.
Using the above assay, compounds were tested for inhibition of FabK. 30 uL of inhibitor was added to a well of the plate. 30 uL of a 250 uM stock of NADH and 60 uL of a 67.5 uM stock of crotonoyl ACP were then added to the well. The plate was incubated at 30° C. for 5 min. The reaction was initiated by adding 30 uL of a 6.25 nM stock of enzyme to the well (also pre-incubated at 30° C.). The reaction was then monitored at A340 nm for 30 min at 30° C. Positive controls were reactions without compound. Negative controls were reactions without enzyme and without compound. Final concentrations in the assay mixture were 25 uM crotonoyl-ACP, 50 uM NADH, and 1.25 nM enzyme.
IC50s were determined for compounds by carrying out the assay at 8 different concentrations of compound (100 uM-0.75 uM) in duplicate. The IC50 was calculated using Grafit software (v 4.09). […]

Fab K inhibition (result in words): dual Fab I/Fab K inhibitors
SMILES: CN(Cc1cn(C)c2ccccc12)C(=O)/C=C/c1cnc2c(c1)CCC(=O)N2 [Example 62, (E)-N-methyl-N-(1-methyl-1H-indol-3-ylmethyl)-3-(7-oxo-5,6,7,8-tetrahydro-1,8-naphthyridin-3-yl)acrylamide]
